Laboratory results reported in US9096608B2, “Pharmaceutically active pyrazolo-triazine derivatives” (LEAD DISCOVERY CENTER GMBH, priority 2012, dated 2015).

Key:
Type in all cases: biochemical
[1] = target: T1, CDK7/CycH/Mat1 (Homo sapiens, UniProt P50613); assay: CDK7 Enzymatic Activity Assay (Lance Kinase Activity Assay, FRET); details: Table 5A; 25 μM ATP final; read-out: CDK7: IC50 [mM] for CDK7 inhibition (the above defined ranges apply)
T1 construct: purchased Carna
How it was run: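 TR-FRET (LANCE) kinase assay with ULight-MBP peptide substrate and Eu-labelled anti-phospho antibody; compounds in 8-point 1:3 series in HEPES 50 mM pH 7.5, MgCl2 10 mM, EGTA 1 mM, DTT 2 mM, 0.01% Tween-20.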

[2] = target: T2, CDK9/Cyclin T1 (Homo sapiens, UniProt P50750); assay: CDK9 Enzymatic Activity Assay (Lance Kinase Activity Assay, FRET); details: Table 5B; symbols per IC50 ranges of b615
T2 construct: purchased Invitrogen
T2 sequence (P50750 whole entry): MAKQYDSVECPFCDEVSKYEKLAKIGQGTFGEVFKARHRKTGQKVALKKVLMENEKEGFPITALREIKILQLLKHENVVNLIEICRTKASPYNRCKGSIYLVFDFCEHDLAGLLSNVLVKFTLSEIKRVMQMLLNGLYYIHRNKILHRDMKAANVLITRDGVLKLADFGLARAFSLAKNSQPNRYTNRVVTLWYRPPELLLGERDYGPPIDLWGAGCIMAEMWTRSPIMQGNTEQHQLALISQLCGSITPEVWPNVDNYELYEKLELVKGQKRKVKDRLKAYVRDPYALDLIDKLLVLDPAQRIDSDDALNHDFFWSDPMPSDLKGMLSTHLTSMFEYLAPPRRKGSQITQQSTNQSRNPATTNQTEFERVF
T2 sequence (O60563 whole entry partner): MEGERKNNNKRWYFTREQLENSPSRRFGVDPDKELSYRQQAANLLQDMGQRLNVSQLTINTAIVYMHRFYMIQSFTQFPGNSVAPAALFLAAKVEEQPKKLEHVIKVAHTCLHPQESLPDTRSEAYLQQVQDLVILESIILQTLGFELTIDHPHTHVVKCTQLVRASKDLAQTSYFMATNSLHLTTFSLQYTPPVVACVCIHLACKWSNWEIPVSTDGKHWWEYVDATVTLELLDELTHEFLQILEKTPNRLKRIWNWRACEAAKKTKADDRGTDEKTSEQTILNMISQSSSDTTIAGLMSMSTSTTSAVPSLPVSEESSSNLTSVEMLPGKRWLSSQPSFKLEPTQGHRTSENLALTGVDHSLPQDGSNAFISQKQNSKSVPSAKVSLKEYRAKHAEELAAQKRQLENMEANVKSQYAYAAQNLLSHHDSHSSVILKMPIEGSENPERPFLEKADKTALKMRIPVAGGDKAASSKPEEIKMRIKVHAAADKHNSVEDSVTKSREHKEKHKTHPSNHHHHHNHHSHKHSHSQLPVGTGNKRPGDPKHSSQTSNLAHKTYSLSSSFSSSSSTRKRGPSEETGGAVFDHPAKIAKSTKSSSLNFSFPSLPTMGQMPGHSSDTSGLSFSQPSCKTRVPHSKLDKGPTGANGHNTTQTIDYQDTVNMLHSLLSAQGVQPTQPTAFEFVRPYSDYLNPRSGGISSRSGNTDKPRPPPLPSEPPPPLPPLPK
How it was run: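 TR-FRET detection of ULight-MBP substrate phosphorylation by CDK9/cyclin T1 using a Eu-anti-phospho-MBP antibody, in 50 mM HEPES pH 7.5, 10 mM MgCl2, 1 mM EGTA, 2 mM DTT, 0.01% Tween-20. Kinase reaction 1 h at room temperature, then EDTA detection buffer for 1 h before reading.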

[3] = target: T3, CDK2/CycA (Homo sapiens, UniProt P24941); assay: CDK2 Enzymatic Activity Assay (Lance Kinase Activity Assay, FRET); details: Table 5B; symbols per IC50 ranges of b615
T3 construct: purchased Proqinase
How it was run: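 Compounds serially diluted 1:3 over 8 steps, run with CDK2/CycA, ULight-MBP substrate and ATP in HEPES pH 7.5 buffer for 1 h at room temperature. LANCE TR-FRET detection with Eu-anti-phospho-MBP after EDTA stop; IC50 from sigmoidal dose-response curves.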

T1 sequence (P50613 whole entry): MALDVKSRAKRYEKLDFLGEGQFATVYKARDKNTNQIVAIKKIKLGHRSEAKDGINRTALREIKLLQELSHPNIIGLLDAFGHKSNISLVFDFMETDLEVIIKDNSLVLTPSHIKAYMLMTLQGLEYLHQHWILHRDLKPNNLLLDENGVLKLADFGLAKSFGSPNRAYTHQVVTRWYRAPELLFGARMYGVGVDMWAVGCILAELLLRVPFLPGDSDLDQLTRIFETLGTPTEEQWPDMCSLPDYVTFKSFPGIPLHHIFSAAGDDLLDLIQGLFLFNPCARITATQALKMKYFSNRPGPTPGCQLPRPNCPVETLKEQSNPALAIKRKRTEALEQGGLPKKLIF
T1 sequence (P51946 whole entry partner): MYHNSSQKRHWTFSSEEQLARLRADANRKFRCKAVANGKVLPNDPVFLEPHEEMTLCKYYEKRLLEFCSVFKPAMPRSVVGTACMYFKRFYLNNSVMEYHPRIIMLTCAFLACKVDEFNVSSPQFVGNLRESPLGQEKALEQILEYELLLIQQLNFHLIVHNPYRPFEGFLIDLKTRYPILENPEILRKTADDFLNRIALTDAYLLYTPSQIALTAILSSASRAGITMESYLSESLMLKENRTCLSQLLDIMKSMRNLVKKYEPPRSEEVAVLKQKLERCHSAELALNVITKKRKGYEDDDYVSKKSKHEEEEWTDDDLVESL
T1 sequence (P51948 whole entry partner): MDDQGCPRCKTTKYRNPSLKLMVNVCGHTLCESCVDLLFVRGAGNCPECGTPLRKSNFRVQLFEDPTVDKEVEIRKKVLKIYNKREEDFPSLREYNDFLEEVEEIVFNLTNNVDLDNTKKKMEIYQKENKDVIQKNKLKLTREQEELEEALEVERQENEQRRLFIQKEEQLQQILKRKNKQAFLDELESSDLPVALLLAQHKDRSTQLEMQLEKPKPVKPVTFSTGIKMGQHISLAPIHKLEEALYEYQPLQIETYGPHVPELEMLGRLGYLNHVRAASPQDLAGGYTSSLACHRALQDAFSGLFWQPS

SMILES | IC50 [1] | CDK9: Selectivity of CDK7 inhibition over CDK9 inhibition [fold] [2] | CDK2 IC50 range class [3]
COc1ccc(OC)c([C@H](C)Nc2nc(O[C@@H]3CCCNC3)nc3c(C(C)C)cnn23)c1 [(VII-bd), N-((S)-1-(2,5-dimethoxy-phenyl)ethyl)-8-isopropyl-2-((R)-piperidin-3-yloxy)pyrazolo[1,5-a][1,3,5]triazin-4-amine] | > 100 nM | +++ (IC50>2500 nM) | +++ (IC50>2500 nM)
COc1ccc(C(C)Nc2nc(O[C@@H]3CCCNC3)nc3c(C(C)C)cnn23)cc1 (stereo partly drawn) [(VII-an), 8-isopropyl-N-(1-(4-methoxyphenyl)ethyl)-2-((R)-piperidin-3-yloxy)pyrazolo[1,5-a][1,3,5]triazin-4-amine] | > 100 nM | +++ (IC50>2500 nM) | +++ (IC50>2500 nM)
CC(C)c1cnn2c(N[C@@H](C)c3ccccc3O)nc(O[C@@H]3CCCNC3)nc12 [(VII-ba), 2-((S)-1-((8-isopropyl-2-((R)-piperidin-3-yloxy)pyrazolo[1,5-a][1,3,5]triazin-4-yl)amino)ethyl)phenol] | < 10 nM | +++ (IC50>2500 nM) | +++ (IC50>2500 nM)
COc1cccc([C@H](C)Nc2nc(N3CC(N4CCC(F)(F)C4)C3)nc3c(C(C)C)cnn23)c1 [(VIII-o), (S)-2-(3-(3,3-difluoropyrrolidin-1-yl)azetidin-1-yl)-8-isopropyl-N-(1-(3-methoxyphenyl)ethyl)pyrazolo[1,5-a][1,3,5]triazin-4-amine] | > 100 nM | +++ (IC50>2500 nM) | +++ (IC50>2500 nM)
CC(C)Oc1cccc([C@H](C)Nc2nc(O[C@@H]3CCCNC3)nc3c(C(C)C)cnn23)c1 [(VII-bc), N-((S)-1-(3-isopropoxy-phenyl)ethyl)-8-isopropyl-2-((R)-piperidin-3-yloxy)pyrazolo[1,5-a][1,3,5]triazin-4-amine] | 10 to 30 nM | +++ (IC50>2500 nM) | +++ (IC50>2500 nM)
COc1cccc([C@H](C)Nc2nc(NCCN3CCOCC3)nc3c(C(C)C)cnn23)c1 [(VIII-m), (S)-8-isopropyl-N4-(1-(3-methoxyphenyl)ethyl)-N2-(2-morpholinoethyl)pyrazolo[1,5-a][1,3,5]triazine-2,4-diamine] | > 100 nM | +++ (IC50>2500 nM) | +++ (IC50>2500 nM)
COc1cccc([C@H](C)Nc2nc(C(=O)N3CCNCC3)nc3c(C(C)C)cnn23)c1 [(XXVI-4), (S)-(8-isopropyl-4-((1-(3-methoxyphenyl)ethyl)amino)pyrazolo[1,5-a][1,3,5]triazin-2-yl)(piperazin-1-yl)methanone] | > 100 nM | +++ (IC50>2500 nM) | +++ (IC50>2500 nM)
CC(C)c1cnn2c(NC(C)c3ccccc3-c3ccccc3)nc(O[C@@H]3CCCNC3)nc12 (stereo partly drawn) [(VII-as), N-(1-([1,1′-biphenyl]-2-yl)ethyl)-8-isopropyl-2-((R)-piperidin-3-yloxy)pyrazolo[1,5-a][1,3,5]triazin-4-amine] | > 100 nM | +++ (IC50>2500 nM) | +++ (IC50>2500 nM)
COc1cccc([C@H](C)Nc2nc(O[C@@H]3CCCNC3)nc3c(C(C)C)cnn23)c1OC [(VII-aX), N-((S)-1-(2,3-dimethoxy-phenyl)ethyl)-8-isopropyl-2-((R)-piperidin-3-yloxy)pyrazolo[1,5-a][1,3,5]triazin-4-amine] | < 10 nM | +++ (IC50>2500 nM) | +++ (IC50>2500 nM)
COc1cccc([C@H](C)Nc2nc(CNCCN3CCOCC3)nc3c(C(C)C)cnn23)c1 [(XXIX-7), (S)-8-isopropyl-N-(1-(3-methoxyphenyl)ethyl)-2-(((2-morpholinoethyl)amino)methyl)pyrazolo[1,5-a][1,3,5]triazin-4-amine] | > 100 nM | +++ (IC50>2500 nM) | +++ (IC50>2500 nM)
COc1cccc([C@H](C)Nc2nc(NC(CN)c3ccccc3)nc3c(C(C)C)cnn23)c1 (stereo partly drawn) [(VIII-z), N2-(2-amino-1-phenylethyl)-8-isopropyl-N4-((S)-1-(3-methoxyphenyl)ethyl)pyrazolo[1,5-a][1,3,5]triazine-2,4-diamine] | > 100 nM | +++ (IC50>2500 nM) | +++ (IC50>2500 nM)
CCOc1ccccc1[C@H](C)Nc1nc(O[C@@H]2CCCNC2)nc2c(C(C)C)cnn12 [(VII-aw), N-((S)-1-(2-ethoxyphenyl)ethyl)-8-isopropyl-2-((R)-piperidin-3-yloxy)pyrazolo[1,5-a][1,3,5]triazin-4-amine] | > 100 nM | +++ (IC50>2500 nM) | +++ (IC50>2500 nM)
COc1cccc([C@H](C)Nc2nc(S(=O)(=O)C3CCNCC3)nc3c(C(C)C)cnn23)c1 [(X-f), (S)-8-isopropyl-N-(1-(3-methoxyphenyl)ethyl)-2-(piperidin-4-ylsulfonyl)pyrazolo[1,5-a][1,3,5]triazin-4-amine] | 10 to 30 nM | +++ (IC50>2500 nM) | +++ (IC50>2500 nM)
CC(C)c1cnn2c(NC(C)c3cccc4cn[nH]c34)nc(O[C@@H]3CCCNC3)nc12 (stereo partly drawn) [(VII-cb), N-(1-(1H-indazol-7-yl)ethyl)-8-isopropyl-2-((R)-piperidin-3-yloxy)pyrazolo[1,5-a][1,3,5]triazin-4-amine] | < 10 nM | +++ (IC50>2500 nM) | +++ (IC50>2500 nM)
CC(C)c1cnn2c(N[C@@H](C)c3ccccc3)nc(OC3CCC(N)CC3)nc12 (stereo partly drawn) [(VII-k), (S)-2-((4-aminocyclohexyl)oxy)-8-isopropyl-N-(1-phenylethyl)pyrazolo[1,5-a][1,3,5]triazin-4-amine] | < 10 nM | +++ (IC50>2500 nM) | +++ (IC50>2500 nM)
CCOc1cccc([C@H](C)Nc2nc(O[C@@H]3CCCNC3)nc3c(C(C)C)cnn23)c1 [(VII-aV), N-((S)-1-(3-ethoxyphenyl)ethyl)-8-isopropyl-2-((R)-piperidin-3-yloxy)pyrazolo[1.5-a][1,3,5]triazin-4-amine] | > 100 nM | +++ (IC50>2500 nM) | +++ (IC50>2500 nM)
COc1cccc([C@H](C)Nc2nc(N3CCCC4(CCCCN4)C3)nc3c(C(C)C)cnn23)c1 (stereo partly drawn) [(VIII-ah), 8-isopropyl-N-((S)-1-(3-methoxyphenyl)ethyl)-2-(1,8-diazaspiro[5.5]undecan-8-yl)pyrazolo[1,5-a][1,3,5]triazin-4-amine] | < 10 nM | +++ (IC50>2500 nM) | +++ (IC50>2500 nM)
CC(C)c1cnn2c(N[C@@H](C)c3ccccc3)nc([S+]([O-])C3CCNCC3)nc12 (stereo partly drawn) [(X-a), 8-isopropyl-N-((S)-1-phenylethyl)-2-(piperidin-4-ylsulfinyl)pyrazolo[1,5-a][1,3,5]triazin-4-amine] | < 10 nM | +++ (IC50>2500 nM) | +++ (IC50>2500 nM)
